Experimental data as given in ChEMBL document CHEMBL3991601, “The target landscape of clinical kinase drugs” (Science, 2017).
Calls of active or inactive are those of the source. For most assays here, no stated cut-off is given here; in the data, actives have a measured Kd and inactives only a lower limit.

Experiments:
[1] = target: RAC-gamma serine/threonine-protein kinase (Homo sapiens, UniProt Q9Y243)
[2] = target: Serine/threonine-protein kinase B-raf (Homo sapiens, UniProt P15056)
[3] = target: Cyclin-dependent kinase 12 (Homo sapiens, UniProt Q9NYV4)
[4] = target: Citron Rho-interacting kinase (Homo sapiens, UniProt O14578)
[5] = target: Casein kinase I isoform delta (Homo sapiens, UniProt P48730)
[6] = target: T1, Delta(24)-sterol reductase (Homo sapiens, UniProt Q15392)
T1 sequence (Q15392 whole entry): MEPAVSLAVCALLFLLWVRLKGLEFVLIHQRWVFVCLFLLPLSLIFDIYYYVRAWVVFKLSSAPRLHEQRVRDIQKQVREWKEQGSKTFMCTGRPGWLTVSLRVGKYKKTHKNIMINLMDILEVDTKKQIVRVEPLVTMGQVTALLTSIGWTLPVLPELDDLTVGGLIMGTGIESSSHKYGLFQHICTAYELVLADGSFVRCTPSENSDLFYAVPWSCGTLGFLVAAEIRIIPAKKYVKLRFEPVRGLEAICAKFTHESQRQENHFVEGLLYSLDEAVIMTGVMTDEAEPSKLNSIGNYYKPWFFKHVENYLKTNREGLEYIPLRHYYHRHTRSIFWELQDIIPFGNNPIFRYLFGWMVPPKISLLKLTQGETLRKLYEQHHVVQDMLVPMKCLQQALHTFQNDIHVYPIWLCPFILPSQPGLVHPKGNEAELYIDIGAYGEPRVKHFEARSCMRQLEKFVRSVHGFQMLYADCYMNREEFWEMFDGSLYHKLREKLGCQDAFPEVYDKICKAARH

Ephrin type-A receptor 7 = Ephrin type-A receptor 7 (Homo sapiens, UniProt Q15375)
[7] = target: Inosine-5'-monophosphate dehydrogenase 2 (Homo sapiens, UniProt P12268)
[8] = target: MAP/microtubule affinity-regulating kinase 3 (Homo sapiens, UniProt P27448)
[9] = target: T2, Serine/threonine-protein kinase Nek9 (Homo sapiens, UniProt Q8TD19)
T2 sequence (Q8TD19 whole entry): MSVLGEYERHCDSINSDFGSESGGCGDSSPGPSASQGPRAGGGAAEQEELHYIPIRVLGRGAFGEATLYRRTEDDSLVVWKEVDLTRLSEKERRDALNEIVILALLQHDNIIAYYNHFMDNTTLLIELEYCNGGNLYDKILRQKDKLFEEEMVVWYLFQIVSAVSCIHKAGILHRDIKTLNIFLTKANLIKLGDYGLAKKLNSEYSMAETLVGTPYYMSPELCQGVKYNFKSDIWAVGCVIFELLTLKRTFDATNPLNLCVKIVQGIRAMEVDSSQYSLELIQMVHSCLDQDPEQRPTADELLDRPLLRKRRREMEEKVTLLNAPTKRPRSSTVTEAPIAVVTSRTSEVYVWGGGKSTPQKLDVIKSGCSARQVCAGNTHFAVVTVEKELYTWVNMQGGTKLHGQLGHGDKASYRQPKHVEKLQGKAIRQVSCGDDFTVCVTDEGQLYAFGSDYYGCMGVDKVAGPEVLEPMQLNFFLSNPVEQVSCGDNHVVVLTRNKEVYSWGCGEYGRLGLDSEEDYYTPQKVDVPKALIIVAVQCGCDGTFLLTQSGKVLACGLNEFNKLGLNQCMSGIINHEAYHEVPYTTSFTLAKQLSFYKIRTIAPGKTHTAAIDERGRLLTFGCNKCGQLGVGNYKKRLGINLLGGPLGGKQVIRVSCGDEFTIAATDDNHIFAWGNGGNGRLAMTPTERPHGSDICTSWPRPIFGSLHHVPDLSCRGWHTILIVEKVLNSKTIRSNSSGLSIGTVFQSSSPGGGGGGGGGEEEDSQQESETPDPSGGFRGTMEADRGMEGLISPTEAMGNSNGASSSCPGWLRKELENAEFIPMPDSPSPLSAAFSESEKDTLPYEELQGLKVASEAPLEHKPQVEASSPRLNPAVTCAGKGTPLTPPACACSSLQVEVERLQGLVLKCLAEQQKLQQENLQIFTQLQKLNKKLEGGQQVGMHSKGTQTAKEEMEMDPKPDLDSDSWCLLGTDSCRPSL

[10] = target: T3, Serine/threonine-protein kinase D3 (Homo sapiens, UniProt O94806)
T3 sequence (O94806 whole entry): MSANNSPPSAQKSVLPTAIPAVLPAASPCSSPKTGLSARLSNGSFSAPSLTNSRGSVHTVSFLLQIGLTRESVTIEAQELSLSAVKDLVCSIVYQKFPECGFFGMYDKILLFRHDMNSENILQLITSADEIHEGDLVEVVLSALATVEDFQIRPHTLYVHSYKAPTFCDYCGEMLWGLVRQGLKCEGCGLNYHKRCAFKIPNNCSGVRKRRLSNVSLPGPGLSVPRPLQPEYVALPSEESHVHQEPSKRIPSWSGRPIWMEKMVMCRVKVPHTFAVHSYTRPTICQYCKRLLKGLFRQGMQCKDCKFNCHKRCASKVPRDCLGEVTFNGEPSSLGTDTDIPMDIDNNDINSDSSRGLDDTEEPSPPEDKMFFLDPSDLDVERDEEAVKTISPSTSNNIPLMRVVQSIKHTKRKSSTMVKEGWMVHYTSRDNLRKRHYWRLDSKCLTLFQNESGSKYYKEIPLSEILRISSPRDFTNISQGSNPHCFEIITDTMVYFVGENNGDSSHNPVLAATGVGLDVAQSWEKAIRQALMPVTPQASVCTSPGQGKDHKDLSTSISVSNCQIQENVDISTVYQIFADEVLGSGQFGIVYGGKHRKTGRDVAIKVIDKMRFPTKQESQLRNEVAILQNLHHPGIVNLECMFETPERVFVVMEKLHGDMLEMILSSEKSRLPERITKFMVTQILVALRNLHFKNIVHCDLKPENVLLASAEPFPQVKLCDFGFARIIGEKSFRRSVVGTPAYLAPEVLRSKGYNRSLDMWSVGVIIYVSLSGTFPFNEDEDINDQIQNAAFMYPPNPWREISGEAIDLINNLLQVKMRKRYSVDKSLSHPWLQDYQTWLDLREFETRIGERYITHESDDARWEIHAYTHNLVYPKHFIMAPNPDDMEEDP

[11] = target: GTP-binding nuclear protein Ran (Homo sapiens, UniProt P62826)
[12] = target: TRAF2 and NCK-interacting protein kinase (Homo sapiens, UniProt Q9UKE5)
[13] = target: Tyrosine-protein kinase Yes (Homo sapiens, UniProt P07947)

TRAF2 and NCK-interacting protein kinase, sequence (Q9UKE5 whole entry): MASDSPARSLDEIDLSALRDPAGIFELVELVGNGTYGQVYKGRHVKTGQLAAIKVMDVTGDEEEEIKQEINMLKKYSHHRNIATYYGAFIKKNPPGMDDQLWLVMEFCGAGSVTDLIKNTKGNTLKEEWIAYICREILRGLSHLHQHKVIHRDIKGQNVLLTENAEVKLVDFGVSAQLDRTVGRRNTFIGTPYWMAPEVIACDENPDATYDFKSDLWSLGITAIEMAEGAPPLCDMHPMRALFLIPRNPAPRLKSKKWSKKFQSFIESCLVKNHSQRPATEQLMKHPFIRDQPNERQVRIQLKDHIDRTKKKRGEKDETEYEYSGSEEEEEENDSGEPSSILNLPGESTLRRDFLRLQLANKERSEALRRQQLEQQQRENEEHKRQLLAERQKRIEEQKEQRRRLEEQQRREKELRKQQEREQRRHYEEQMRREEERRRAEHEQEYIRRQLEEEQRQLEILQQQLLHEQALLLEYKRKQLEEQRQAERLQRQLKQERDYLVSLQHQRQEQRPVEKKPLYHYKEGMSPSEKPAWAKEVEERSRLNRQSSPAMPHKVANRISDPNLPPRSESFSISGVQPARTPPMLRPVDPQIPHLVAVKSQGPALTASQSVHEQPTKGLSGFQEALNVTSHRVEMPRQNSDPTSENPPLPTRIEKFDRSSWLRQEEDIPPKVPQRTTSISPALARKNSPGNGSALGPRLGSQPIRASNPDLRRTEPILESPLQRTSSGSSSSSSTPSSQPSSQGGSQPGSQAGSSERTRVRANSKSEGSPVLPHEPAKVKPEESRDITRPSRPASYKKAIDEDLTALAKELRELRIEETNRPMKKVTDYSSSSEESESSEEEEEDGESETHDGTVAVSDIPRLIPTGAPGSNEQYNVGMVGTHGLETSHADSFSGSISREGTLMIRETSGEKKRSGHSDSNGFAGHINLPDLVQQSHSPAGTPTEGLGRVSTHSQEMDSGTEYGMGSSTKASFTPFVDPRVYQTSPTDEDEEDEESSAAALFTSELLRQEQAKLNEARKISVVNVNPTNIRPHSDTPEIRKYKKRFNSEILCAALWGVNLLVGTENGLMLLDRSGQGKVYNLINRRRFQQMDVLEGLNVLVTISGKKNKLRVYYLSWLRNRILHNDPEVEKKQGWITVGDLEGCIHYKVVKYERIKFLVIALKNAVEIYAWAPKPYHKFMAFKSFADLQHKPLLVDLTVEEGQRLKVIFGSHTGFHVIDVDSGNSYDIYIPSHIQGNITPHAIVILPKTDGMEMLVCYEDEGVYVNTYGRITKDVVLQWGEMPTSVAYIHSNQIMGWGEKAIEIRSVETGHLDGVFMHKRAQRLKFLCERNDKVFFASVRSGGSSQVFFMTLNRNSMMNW
Serine/threonine-protein kinase B-raf, sequence (P15056 whole entry): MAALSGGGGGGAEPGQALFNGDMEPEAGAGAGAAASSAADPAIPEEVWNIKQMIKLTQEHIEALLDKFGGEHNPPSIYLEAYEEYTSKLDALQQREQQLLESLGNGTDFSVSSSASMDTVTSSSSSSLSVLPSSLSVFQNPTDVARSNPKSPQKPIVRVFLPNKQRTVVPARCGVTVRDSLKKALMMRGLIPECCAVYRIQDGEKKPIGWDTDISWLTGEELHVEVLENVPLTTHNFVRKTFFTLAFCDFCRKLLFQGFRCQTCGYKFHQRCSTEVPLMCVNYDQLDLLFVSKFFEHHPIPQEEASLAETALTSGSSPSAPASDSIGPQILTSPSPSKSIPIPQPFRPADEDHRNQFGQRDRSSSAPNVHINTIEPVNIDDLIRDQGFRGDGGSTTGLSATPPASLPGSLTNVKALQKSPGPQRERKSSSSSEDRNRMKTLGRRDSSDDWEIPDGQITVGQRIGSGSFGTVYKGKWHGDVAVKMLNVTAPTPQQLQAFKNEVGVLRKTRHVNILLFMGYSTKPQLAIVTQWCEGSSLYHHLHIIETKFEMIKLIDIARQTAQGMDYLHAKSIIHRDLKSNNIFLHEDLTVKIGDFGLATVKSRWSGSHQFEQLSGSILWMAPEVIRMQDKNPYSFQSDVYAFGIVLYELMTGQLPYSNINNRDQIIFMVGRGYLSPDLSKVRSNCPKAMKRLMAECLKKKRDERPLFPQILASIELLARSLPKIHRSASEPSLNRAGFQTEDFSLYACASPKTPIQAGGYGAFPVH
RAC-gamma serine/threonine-protein kinase, sequence (Q9Y243 whole entry): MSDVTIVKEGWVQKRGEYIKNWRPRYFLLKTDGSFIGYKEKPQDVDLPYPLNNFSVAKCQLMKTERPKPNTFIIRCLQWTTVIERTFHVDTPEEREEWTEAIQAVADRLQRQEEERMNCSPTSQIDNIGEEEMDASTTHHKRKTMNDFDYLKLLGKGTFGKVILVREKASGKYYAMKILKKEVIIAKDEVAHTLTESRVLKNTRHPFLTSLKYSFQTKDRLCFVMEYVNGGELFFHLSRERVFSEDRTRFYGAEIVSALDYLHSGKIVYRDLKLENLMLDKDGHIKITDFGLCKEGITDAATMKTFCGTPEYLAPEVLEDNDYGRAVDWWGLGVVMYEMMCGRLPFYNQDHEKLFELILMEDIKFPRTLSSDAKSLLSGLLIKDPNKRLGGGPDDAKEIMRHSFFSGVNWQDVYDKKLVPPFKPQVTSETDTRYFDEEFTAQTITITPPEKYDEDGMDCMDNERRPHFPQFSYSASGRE
Cyclin-dependent kinase 12, sequence (Q9NYV4 whole entry): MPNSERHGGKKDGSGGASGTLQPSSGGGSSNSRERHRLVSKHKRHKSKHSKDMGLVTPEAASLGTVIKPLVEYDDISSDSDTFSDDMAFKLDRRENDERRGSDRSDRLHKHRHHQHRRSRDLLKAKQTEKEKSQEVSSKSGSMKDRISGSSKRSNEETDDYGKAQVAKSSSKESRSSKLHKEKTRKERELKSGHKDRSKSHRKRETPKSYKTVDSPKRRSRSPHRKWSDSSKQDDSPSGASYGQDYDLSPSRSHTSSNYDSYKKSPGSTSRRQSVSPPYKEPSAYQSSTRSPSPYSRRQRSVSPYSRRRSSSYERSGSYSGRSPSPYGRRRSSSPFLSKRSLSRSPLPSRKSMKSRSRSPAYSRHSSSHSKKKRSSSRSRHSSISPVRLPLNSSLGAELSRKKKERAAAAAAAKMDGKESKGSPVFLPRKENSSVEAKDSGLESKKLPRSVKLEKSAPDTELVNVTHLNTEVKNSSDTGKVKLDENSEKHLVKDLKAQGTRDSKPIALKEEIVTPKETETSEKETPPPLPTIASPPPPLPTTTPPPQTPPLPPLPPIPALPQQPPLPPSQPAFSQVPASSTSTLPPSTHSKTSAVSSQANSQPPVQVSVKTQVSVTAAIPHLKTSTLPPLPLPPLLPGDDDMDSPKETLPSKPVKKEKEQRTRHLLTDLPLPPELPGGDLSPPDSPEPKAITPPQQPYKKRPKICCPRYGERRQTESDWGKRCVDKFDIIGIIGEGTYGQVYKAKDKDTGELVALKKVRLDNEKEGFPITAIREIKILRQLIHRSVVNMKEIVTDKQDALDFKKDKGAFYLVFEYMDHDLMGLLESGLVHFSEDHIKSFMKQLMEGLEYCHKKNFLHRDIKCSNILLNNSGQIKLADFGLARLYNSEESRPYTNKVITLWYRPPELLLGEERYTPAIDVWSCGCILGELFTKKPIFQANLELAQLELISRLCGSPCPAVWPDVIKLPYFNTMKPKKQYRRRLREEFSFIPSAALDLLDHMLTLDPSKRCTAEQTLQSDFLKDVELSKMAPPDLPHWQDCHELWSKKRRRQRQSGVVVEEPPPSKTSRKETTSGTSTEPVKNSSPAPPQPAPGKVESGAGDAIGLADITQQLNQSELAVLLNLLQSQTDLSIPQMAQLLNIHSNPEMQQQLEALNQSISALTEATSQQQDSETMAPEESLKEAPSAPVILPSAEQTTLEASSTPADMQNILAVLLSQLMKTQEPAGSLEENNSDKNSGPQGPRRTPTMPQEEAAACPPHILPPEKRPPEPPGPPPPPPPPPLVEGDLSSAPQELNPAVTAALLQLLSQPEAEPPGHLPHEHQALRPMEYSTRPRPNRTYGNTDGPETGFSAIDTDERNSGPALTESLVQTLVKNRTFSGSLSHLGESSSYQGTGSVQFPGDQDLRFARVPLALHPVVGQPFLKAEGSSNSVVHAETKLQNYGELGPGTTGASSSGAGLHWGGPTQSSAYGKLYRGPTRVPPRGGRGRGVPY
MAP/microtubule affinity-regulating kinase 3, sequence (P27448 whole entry): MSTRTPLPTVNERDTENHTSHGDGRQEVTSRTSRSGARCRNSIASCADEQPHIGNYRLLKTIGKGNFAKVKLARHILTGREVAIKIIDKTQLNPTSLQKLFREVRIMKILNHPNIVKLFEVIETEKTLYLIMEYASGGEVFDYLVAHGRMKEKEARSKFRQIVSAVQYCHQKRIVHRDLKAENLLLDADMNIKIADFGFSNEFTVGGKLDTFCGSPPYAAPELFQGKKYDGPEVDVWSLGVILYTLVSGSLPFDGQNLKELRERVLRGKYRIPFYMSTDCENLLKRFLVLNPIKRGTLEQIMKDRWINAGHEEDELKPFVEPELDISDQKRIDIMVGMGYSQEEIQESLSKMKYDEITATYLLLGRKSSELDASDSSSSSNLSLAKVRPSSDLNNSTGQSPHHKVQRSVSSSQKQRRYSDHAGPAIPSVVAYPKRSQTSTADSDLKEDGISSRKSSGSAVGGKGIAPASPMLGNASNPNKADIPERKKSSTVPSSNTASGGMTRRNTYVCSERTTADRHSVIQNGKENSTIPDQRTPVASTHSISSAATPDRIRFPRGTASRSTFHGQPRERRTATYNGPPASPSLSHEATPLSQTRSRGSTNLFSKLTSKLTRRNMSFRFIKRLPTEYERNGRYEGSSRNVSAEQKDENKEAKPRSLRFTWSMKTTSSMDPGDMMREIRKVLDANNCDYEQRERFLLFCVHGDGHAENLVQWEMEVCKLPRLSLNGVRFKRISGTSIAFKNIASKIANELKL

| Structure (SMILES) | Kd [1] | Kd [2] | Kd [3] | Kd [4] | Kd [5] | Kd [6] | Kd (Ephrin type-A receptor 7) | Kd [7] | Kd [8] | Kd [9] | Kd [10] | Kd [11] | Kd [12] | Kd [13] |
| --- | --- | --- | --- | --- | --- | --- | --- | --- | --- | --- | --- | --- | --- | --- |
| COc1cc(Nc2ncc(F)c(Nc3ccc4c(n3)N(COP(=O)(O)O)C(=O)C(C)(C)O4)n2)cc(OC)c1OC [FOSTAMATINIB] | > 30 µM (inactive) | > 30 µM (inactive) | > 30 µM (inactive) | > 30 µM (inactive) | > 30 µM (inactive) | > 30 µM (inactive) | > 30 µM (inactive) | > 30 µM (inactive) | > 30 µM (inactive) | 0.041 µM (active) | > 30 µM (inactive) | > 30 µM (inactive) | > 30 µM (inactive) | > 30 µM (inactive) |
| C[C@@H]1COC(Nc2ccc3ncnc(Nc4ccc(OCc5nccs5)c(Cl)c4)c3c2)=N1 [VARLITINIB] | > 30 µM (inactive) | > 30 µM (inactive) | > 30 µM (inactive) | > 30 µM (inactive) | > 30 µM (inactive) | > 30 µM (inactive) | > 30 µM (inactive) | > 30 µM (inactive) | > 30 µM (inactive) | > 30 µM (inactive) | > 30 µM (inactive) | > 30 µM (inactive) | > 30 µM (inactive) | 0.321 µM (active) |
| COCCN1CCN(Cc2ccc(-c3n[nH]c4c3C(=O)c3c(NC(=O)NN5CCOCC5)cccc3-4)cc2)CC1 [RGB-286638] | > 30 µM (inactive) | > 30 µM (inactive) | 0.947 µM (active) | 0.763 µM (active) | 1.22 µM (active) | > 30 µM (inactive) | > 30 µM (inactive) | > 30 µM (inactive) | > 30 µM (inactive) | > 30 µM (inactive) | 0.297 µM (active) | > 30 µM (inactive) | > 30 µM (inactive) | > 30 µM (inactive) |
| O=C(O)c1ccc2c(c1)nc(Nc1cccc(Cl)c1)c1ccncc12 [SILMITASERTIB] | > 30 µM (inactive) | > 30 µM (inactive) | > 30 µM (inactive) | > 30 µM (inactive) | > 30 µM (inactive) | > 30 µM (inactive) | > 30 µM (inactive) | > 30 µM (inactive) | > 30 µM (inactive) | > 30 µM (inactive) | > 30 µM (inactive) | > 30 µM (inactive) | > 30 µM (inactive) | > 30 µM (inactive) |
| Cc1c(Cn2c(C)nc3c(C(=O)O)cc(N4CCOCC4)cc32)cccc1C(F)(F)F [GSK-2636771] | > 30 µM (inactive) | > 30 µM (inactive) | > 30 µM (inactive) | > 30 µM (inactive) | > 30 µM (inactive) | > 30 µM (inactive) | > 30 µM (inactive) | > 30 µM (inactive) | > 30 µM (inactive) | > 30 µM (inactive) | > 30 µM (inactive) | > 30 µM (inactive) | > 30 µM (inactive) | > 30 µM (inactive) |
